These compounds were tested against T1, Peroxisome proliferator-activated receptor alpha (Homo sapiens, UniProt Q07869).
T1 sequence (Q07869 whole entry): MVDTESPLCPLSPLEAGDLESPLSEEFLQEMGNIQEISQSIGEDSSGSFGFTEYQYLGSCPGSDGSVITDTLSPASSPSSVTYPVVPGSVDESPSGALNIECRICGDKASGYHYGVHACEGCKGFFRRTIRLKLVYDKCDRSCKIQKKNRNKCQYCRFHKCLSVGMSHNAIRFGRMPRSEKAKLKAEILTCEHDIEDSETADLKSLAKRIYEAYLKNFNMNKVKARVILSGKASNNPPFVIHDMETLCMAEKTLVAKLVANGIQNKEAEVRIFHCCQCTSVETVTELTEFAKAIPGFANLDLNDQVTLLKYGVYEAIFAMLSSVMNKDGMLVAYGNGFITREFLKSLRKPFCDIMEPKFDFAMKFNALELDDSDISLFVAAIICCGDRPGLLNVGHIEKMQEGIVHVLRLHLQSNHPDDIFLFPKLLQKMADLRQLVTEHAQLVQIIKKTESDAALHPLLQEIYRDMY

IC50 [µM] | Structure (SMILES)
5.01 | O=C(O)COc1cccc2c1CCN(S(=O)(=O)c1cccc(C(=O)Nc3ccc(Cl)cc3C(=O)O)c1)C2
1 | Cc1ccc(NC(=O)c2cccc(S(=O)(=O)n3ccc4c(C)cccc43)c2)c(C(=O)O)c1
3.98 | COc1ccc2ccn(S(=O)(=O)c3cccc(C(=O)Nc4ccc(C)cc4C(=O)O)c3)c2c1
3.16 | Cc1ccc(NC(=O)c2cccc(S(=O)(=O)n3ccc4cccc(Cl)c43)c2)c(C(=O)O)c1
1.58 | COc1ccc2ccn(S(=O)(=O)c3cccc(C(=O)Nc4ccc(Cl)cc4C(=O)O)c3)c2c1
0.794 | COc1cccc2c1ccn2S(=O)(=O)c1cccc(C(=O)Nc2ccc(Cl)cc2C(=O)O)c1
1.26 | COc1cccc2c1ccn2S(=O)(=O)c1cccc(C(=O)Nc2ccc(C)cc2C(=O)O)c1
3.16 | COc1ccc2c(ccn2S(=O)(=O)c2cccc(C(=O)Nc3ccc(Cl)cc3C(=O)O)c2)c1
1.58 | Cc1ccc(NC(=O)c2cccc(S(=O)(=O)n3ccc4cccc(C)c43)c2)c(C(=O)O)c1
> 10 | Cc1cccc(NC(=O)c2cccc(S(=O)(=O)N3CCc4ccccc4C3)c2)c1C(=O)O
1 | Cc1ccc(NC(=O)c2cccc(S(=O)(=O)n3ccc4cc(C)ccc43)c2)c(C(=O)O)c1
> 10 | Cc1cccc(C(=O)O)c1NC(=O)c1cccc(S(=O)(=O)N2CCc3ccccc3C2)c1
3.16 | Cc1ccc(NC(=O)c2cccc(S(=O)(=O)n3ccc4ccc(Cl)cc43)c2)c(C(=O)O)c1
7.94 | COc1ccc2c(ccn2S(=O)(=O)c2cccc(C(=O)Nc3ccc(C)cc3C(=O)O)c2)c1
> 10 | COc1cccc2ccn(S(=O)(=O)c3cccc(C(=O)Nc4ccc(C)cc4C(=O)O)c3)c12
